Data set [1] has as its system RT112. The experiment in a line: Inhibition of cell proliferation, RT112 human bladder cancer cells (CyQuant). It counts as cell-based. As to conditions: read-out: Bladder Cancer Cell Lines IC50 (μM) RT112. As to the method: (§1) After an additional 96-h culture, the medium was removed and the plates frozen at −80° C. Cell proliferation was evaluated using CyQuant cell proliferation assay kit from Molecular Probes (Eugene, Oreg.).

For data set [2], the system named is RT4. The data set can be described thus: Inhibition of cell proliferation, RT4 human bladder cancer cells (CyQuant). Format: cell-based. To be noted: read-out: Bladder Cancer Cell Lines IC50 (μM) RT4. Here is the method:
as §1

Data set [3] has as its system T24. The data set can be described thus: Inhibition of cell proliferation, T24 human bladder cancer cells (CyQuant). As to conditions: read-out: Bladder Cancer Cell Lines IC50 (μM) T24. It counts as cell-based. Here is the method:
as §1

Data set [4] concerns human bladder cancer cell lines. The data set can be described thus: Combination of calcitriol with chemotherapeutic agents, bladder cancer cell line proliferation, combination index method. It counts as cell-based. To be noted: agent combined with calcitriol; combination index method (CalcuSyn). Here is the method:
Proliferation was measured after an additional 96 h using CyQuant cell proliferation assay kit. Drug interactions (as shown in FIG. 1) were evaluated by the median-effect/isobologram method using CalcuSyn software (Biosoft, Cambridge, UK). Combination Indices (CI) were calculated using the non-constant ratio combination design, determining synergism or antagonism for each data point.

Data set [5] in a line: Stability/compatibility of epirubicin and calcitriol solution for intravesical instillation (HPLC-UV). It counts as physicochemical. As to the method: Approximately 12 mg of freeze-dried Farimorubicina® powder (approx. 2 mg of epirubicin) were dissolved in water to produce a concentrated stock solution. After vortexing, the concentrated stock was diluted 1:2 using a isotonic saline containing Tween 20 at 0.1% (w/v) to provide Sample B. After further vortexing, Sample B was stored at 4° C. until use. […] The solution was mixed and stored at −20° C. until use. 100 μl of the concentrated stock solution was then taken and diluted with 900 μl of isotonic saline containing Tween 20 0.1% (w/v). After shaking the sample was stored at 4° C. until use. […] Following mixing by vortexing, the sample was stored at 5° C. and analysed using HPLC chromatography after preparation (t=0) and after 2.5 hr (t=150 min). [table]

Setting [6] is: Homo sapiens, RT-112, 96 h, 96-h culture.
The mark [7] stands for this setting: Homo sapiens, RT-4, 96 h, 96-h culture.
The mark [8] stands for this setting: Homo sapiens, T-24, 96-h culture.
Where [9] appears, read: combination (calcitriol 50 μg/ml + epirubicin 1 mg/ml), t = 0 min.
Where [10] appears, read: combination (calcitriol 50 μg/ml + epirubicin 1 mg/ml), t = 150 min, stored at 5° C.
[11] abbreviates: single-component solution (epirubicin 1 mg/ml; calcitriol 100 μg/ml), HPLC peak area.

“And” between values parts separate entries of the source, which are not always exact repeats. Equal values may be shown once. Read-outs that look alike come from different tables or passages of the source.

These results are taken from US20080293647A1, “Combined Use Of Vitamin D Derivatives And Anti-Proliferative Agents For Treating Bladder Cancer” (priority 2004, published 2008).

“1,25-Dihydroxy-21-16,23Z-diene-26,27-hexafluoro-19-nor-cholecalciferol”: the results for the IC50 in data set [1] (96-h culture), in data set [2] (96-h culture) and in data set [3] (96-h culture) were 24 µM, 20 µM and 58.7 µM, respectively.

For the compound `C=C1/C(=C\C=C2/CCC[C@@]3(C)C2CCC3C2(CCCC(C)(C)O)CC2)CC(OC(C)=O)C[C@@H]1OC(C)=O` (stereo partly shown) [1,3-Di-O-acetyl-1,25-dihydroxy-20-cyclopropyl-cholecalciferol], the IC50 – broadly, the concentration at which inhibition is half-maximal – in data set [1] (setting [6]) is 9 µM; in data set [2] (setting [7]), 10 µM; in data set [3] (setting [8]) it was 52.1 µM.

On to `CC(=O)O[C@@H]1CC(=C/C=C2\CCC[C@]3(C)C([C@H](C)CCC(=O)C(C)(C)O)=CCC23)C[C@@H](OC(C)=O)C1` (stereo partly shown) [1,3-O-Diacetyl-1,25-Dihydroxy-16-ene-24-Keto-19-nor-Cholecalciferol], for which the IC50 in data set [1] (setting [6]) came out at 6 µM; in data set [2] (setting [7]), 17 µM; in data set [3] (setting [8]) it was 31 µM.

As to `C=C1/C(=C\C=C2/CCC[C@]3(C)C(C4(CC#CC(O)(C(F)(F)F)C(F)(F)F)CC4)=CCC23)CC(O)C[C@@H]1O` (stereo partly shown) [1,25-Dihydroxy-16-ene-20-cyclopropyl-23,24-yne-26,27 hexafluoro-cholecalciferol], the IC50 in data set [1] (setting [6]) is 13.8 µM; in data set [2] (setting [7]) it was 1.7 µM.

As for `C=C1/C(=C\C=C2/CCC[C@@]3(C)C2CCC3[C@@H](CCCC(C)(C)O)CCC(O)C(C)(C)O)C[C@@H](O)C[C@@H]1O` (stereo partly drawn) [1,25-Dihydroxy-21(2R,3-dihydroxy-3-methyl-butyl)-20S-Cholecalciferol], the values for the IC50 in data set [1] (setting [6]), in data set [2] (setting [7]) and in data set [3] (setting [8]) were 1 µM, 62 µM and 69.4 µM, respectively.

For the compound `C=C1/C(=C\C=C2/CCC[C@@]3(C)C2CCC3C(CCCC(C)(C)O)CCC(O)C(C)(C)O)C[C@@H](O)C[C@@H]1O` (stereo partly drawn) [1,25-Dihydroxy-21-(2R,3-dihydroxy-3-methyl-butyl)-20R-Cholecalciferol], the results for the half-maximal inhibitory concentration (IC50) in data set [1] (setting [6]), in data set [2] (setting [7]) and in data set [3] (setting [8]) were 25 µM, 71 µM and 57.9 µM, respectively.

In the case of `CC(C)(O)CCC[C@@H](CC[C@@H](O)C(C)(C)O)[C@H]1CC[C@H]2/C(=C/C=C3C[C@@H](O)C[C@H](O)C3)CCC[C@]12C` [1,25-Dihydroxy-21-(2R,3-dihydroxy-3-methyl-butyl)-20S-19-nor-cholecalciferol], the IC50 in data set [1] (Homo sapiens, RT-112, 96-h culture) was determined as 44 µM; in data set [2] (Homo sapiens, RT-4, 96-h culture), 72 µM; in data set [3] (setting [8]), 99.2 µM.

Turning to `CC(C)(O)CCC[C@@H](CCC(=O)C(C)(C)O)[C@H]1CC[C@H]2/C(=C/C=C3C[C@@H](O)C[C@H](O)C3)CCC[C@]12C` [1,25-dihydroxy-20S-21(3-hydroxy-3-methyl-butyl)-24-keto-19-nor-cholecalciferol], the IC50 was greater than 30 µM in data set [1] (setting [6]) and 2.6 µM in data set [2] (setting [7]).

For `C=C1/C(=C\C=C2/CCC[C@]3(C)[C@@H]([C@@H](CCCC(C)(C)O)CCC(=O)C(C)(C)O)CC[C@@H]23)C[C@@H](O)C[C@@H]1O` [1,25-dihydroxy-20S-21(3-hydroxy-3-methyl-butyl)-24-keto-cholecalciferol], the IC50 was 25.5 µM in data set [1] (setting [6]) and 8.3 µM in data set [2] (setting [7]).

With `C=C1/C(=C\C=C2/CCC[C@]3(C)C([C@@H](C)C/C=C/C(O)(CC)CC)=CC[C@@H]23)C[C@@H](O)C[C@@H]1F` [1-alpha-fluoro-25-hydroxy-16,23E-diene-26,27-bishomo-20-epi-cholecalciferol], the figures for the IC50 in data set [1] (setting [6]), in data set [2] (setting [7]) and in data set [3] (setting [8]) were 12 µM, 16 µM and 28 µM, respectively.

Take `CC(C)(O)CCCC1(C2=CCC3/C(=C/C=C4/CC(O)C[C@H](O)C4)CCC[C@]23C)CC1` (stereo partly drawn) [1α,25-Dihydroxy-16-ene-20-cyclopropyl-19-nor-cholecalciferol]: the IC50 was greater than 30 µM in data set [1] (setting [6]) and 9.9 µM in data set [2] (setting [7]).

As to `C=C1/C(=C\C=C2/CCC[C@]3(C)C(C4(C/C=C/C(O)(C(F)(F)F)C(F)(F)F)CC4)=CCC23)CC(O)C[C@@H]1O` (stereo partly drawn) [1α,25-Dihydroxy-16-ene-20-cyclopropyl-23,24-E-ene-26,27-hexafluoro cholecalciferol], the half-inhibitory concentration (IC50) came out at 10.6 µM in data set [1] (setting [6]) and 2.3 µM in data set [2] (setting [7]).

`C=C1/C(=C\C=C2/CCC[C@]3(C)C(C4(C/C=C\C(O)(C(F)(F)F)C(F)(F)F)CC4)=CCC23)CC(O)C[C@@H]1O` (stereo partly drawn) [1α,25-Dihydroxy-16-ene-20-cyclopropyl-23,24-Z-ene-26,27-hexafluoro-cholecalciferol]: the IC50 in data set [1] (setting [6]) stood at 15.5 µM; in data set [2] (setting [7]), 3.3 µM.

As for `C[C@]12CCC/C(=C\C=C3\CC(O)C[C@H](O)C3)C1CC=C2C1(C/C=C\C(O)(C(F)(F)F)C(F)(F)F)CC1` (stereo partly drawn) [1α,25-Dihydroxy-16-ene-20-cyclopropyl-23,24-f-ene-2627-hexafluoro-19-nor-cholecalciferol], the IC50 in data set [1] (setting [6]) turned out to be 9.6 µM; in data set [2] (setting [7]), 2.2 µM.

Consider `C=C1/C(=C\C=C2/CCC[C@]3(C)C(C4(CCCC(C)(C)O)CC4)=CCC23)CC(O)C[C@@H]1O` (stereo partly drawn) [1α,25-Dihydroxy-16-ene-20-cyclopropyl-cholecalciferol], for which the values for the IC50 in data set [1] (setting [6]) and in data set [2] (setting [7]) were 27.6 µM and 2 µM, respectively.

Take `C[C@]12CCC/C(=C\C=C3\CC(O)C[C@H](O)C3)C1CC=C2C1(C/C=C/C(O)(C(F)(F)F)C(F)(F)F)CC1` (stereo partly drawn) [1α,25-hydroxy-16-ene-20-cyclopropyl-23,24-E-ene-26,27-hexafluoro-19-nor-cholecalciferol]: the results for the IC50 in data set [1] (setting [6]) and in data set [2] (setting [7]) were 14.5 µM and 4.6 µM, respectively.

For `C=C1/C(=C\C=C2/CCC[C@]3(C)C(C4(C/C=C/C(O)(C(F)(F)F)C(F)(F)F)CC4)=CCC23)CC(O)C[C@@H]1F` (stereo partly drawn) [1α-Fluoro-25-hydroxy-16,23E-diene-20-cyclopropyl-26,27-hexafluoro-cholecalciferol], the IC50 in data set [1] (96-h culture) is 17 µM; in data set [2] (96-h culture) it was 3.6 µM.

For `C=C1/C(=C\C=C2/CCC[C@]3(C)C(C4(C/C=C\C(O)(C(F)(F)F)C(F)(F)F)CC4)=CCC23)CC(O)C[C@@H]1F` (stereo partly drawn) [1α-Fluoro-25-hydroxy-16,23Z-diene-20-cyclopropyl-26,27-hexafluoro-cholecalciferol], the results for the half-maximal inhibitory concentration (IC50) in data set [1] (96-h culture) and in data set [2] (96-h culture) were 21 µM and 3.1 µM, respectively.

Consider `C=C1/C(=C\C=C2/CCC[C@]3(C)C(C4(CC#CC(O)(C(F)(F)F)C(F)(F)F)CC4)=CCC23)CC(O)C[C@@H]1F` (stereo partly drawn) [1α-Fluoro-25-hydroxy-16-ene-20-cyclopropyl-23-yne-26,27-hexafluoro-cholecalciferol], for which the concentration for half-maximal inhibition (IC50) in data set [1] (96-h culture) came out at 16.9 µM; in data set [2] (96-h culture) it was 3.6 µM.

On to `C[C@]12CCC/C(=C\C=C3\CC(O)C[C@H](O)C3)C1CC=C2C1(CC#CC(O)(C(F)(F)F)C(F)(F)F)CC1` (stereo partly shown) [14215-Dihydroxy-16-ene-20-cyclopropyl-23,41-yne-26,27-hexafluoro-19-nor-cholecalciferol], for which the half-maximal inhibitory concentration (IC50) in data set [1] (setting [6]) is 22.7 µM; in data set [2] (setting [7]), 5.2 µM.

On to `N.N.O=C([O-])C1(C(=O)[O-])CCC1.[Pt+2]` [carboplatin], for which the “Synergism or antagonism on bladder cancer cell proliferation in combination with calcitriol” value (from here on “Synergism or antagonism … with calcitriol”) in data set [4] is on record as “does not result in any additive or synergistic effect”.

As for `N.N.[Cl][Pt][Cl]` [cisplatin], the “Synergism or antagonism … with calcitriol” value in data set [4] is recorded as “does not result in any additive or synergistic effect”.

For the compound `COc1cccc2c1C(=O)c1c(O)c3c(c(O)c1C2=O)C[C@@](O)(C(=O)CO)C[C@@H]3O[C@H]1C[C@H](N)[C@H](O)[C@H](C)O1` [doxorubicin], the “Synergism or antagonism … with calcitriol” value in data set [4] is given as “strong synergistic effect”.

`COc1cccc2c1C(=O)c1c(O)c3c(c(O)c1C2=O)C[C@@](O)(C(=O)CO)C[C@@H]3O[C@H]1C[C@H](N)[C@@H](O)[C@H](C)O1` [epirubicin]: the “Synergism or antagonism … with calcitriol” value in data set [4] is “strong synergistic effect”. Besides, the “Area (230 nm)” value is 53425733 and 53877070 in data set [5] (setting [9]); 52245312 and 50817806 in data set [5] (setting [10]); 30443828 and 30511286 and 30555666 in data set [5] (setting [11]). Further, the “Area (254 nm)” value in data set [5] (setting [9]) was 44443024 and 44731107; in data set [5] (setting [10]), 43984488 and 43221785; in data set [5] (setting [11]), 23243121 and 23243599 and 23383366.

Consider `Nc1ccn([C@@H]2O[C@H](CO)[C@@H](O)C2(F)F)c(=O)n1` [gemcitabine], for which, in data set [4], the “Synergism or antagonism … with calcitriol” value is recorded as “strong antagonistic effect”.
